The source of these data is US12558007B2 (priority 2016, dated 2026).

For this experiment, the target named is acetylcholinesterase enzyme (Homo sapiens, UniProt P22303). The experiment is described as follows: Electrochemical sensor with acetylthiocholine reservoir in buffer containing acetylcholinesterase; inhibitor added, then sensor moved to fresh buffer. The following applies: 20 mM PBS, pH 7.4, 1 U/mL acetylcholinesterase, FIG. 13. It is filed as biochemical. As to the method: In this example, a buffer was created to simulate endogenous cholinesterase activity in the interstitial fluid of a test subject. A sensor similar to that described in Example 6 was created with 100 nL of 1 M acetylthiocholine in the reactant reservoir. The sensor was placed in a buffer solution of 20 mM PBS, pH 7.4, and 1 U/mL of acetylcholinesterase enzyme to simulate a test subject. A reversible acetylcholinesterase inhibitor (Neostigmine Bromide) was then added to the buffer solution to simulate an organophosphate. The sensor was then removed from the buffer solution containing the inhibitor and placed in fresh buffer solution.
acetylcholinesterase enzyme, sequence (P22303 32-614, species assumed): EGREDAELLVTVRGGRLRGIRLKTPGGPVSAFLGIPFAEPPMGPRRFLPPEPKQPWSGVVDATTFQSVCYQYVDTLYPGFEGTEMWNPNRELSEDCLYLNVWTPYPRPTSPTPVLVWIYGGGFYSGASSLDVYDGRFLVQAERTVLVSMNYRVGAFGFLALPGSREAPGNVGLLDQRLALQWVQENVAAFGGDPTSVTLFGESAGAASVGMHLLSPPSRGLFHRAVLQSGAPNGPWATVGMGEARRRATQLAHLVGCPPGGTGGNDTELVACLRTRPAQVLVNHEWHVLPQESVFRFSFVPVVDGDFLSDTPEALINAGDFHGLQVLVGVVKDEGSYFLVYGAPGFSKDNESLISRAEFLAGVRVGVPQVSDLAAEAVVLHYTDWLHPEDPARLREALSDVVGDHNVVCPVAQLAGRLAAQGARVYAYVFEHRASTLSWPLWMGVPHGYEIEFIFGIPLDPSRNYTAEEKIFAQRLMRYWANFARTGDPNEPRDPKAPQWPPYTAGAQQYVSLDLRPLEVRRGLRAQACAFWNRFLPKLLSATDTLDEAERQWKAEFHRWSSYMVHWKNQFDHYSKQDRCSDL

`CN(C)C(=O)Oc1cccc([N+](C)(C)C)c1` [Neostigmine Bromide]: the “sensor signal created by acetylcholinesterase interacting with acetylthiocholine, after addition of the inhibitor” value (100 nL of 1 M acetylthiocholine in reservoir) is reported as “fell off after the addition of the inhibitor”. Besides, the “sensor signal after sensor removed from inhibitor solution and placed in fresh buffer (reversibility)” value (fresh buffer) is recorded as “the signal rebounded”.
